Here are results for one molecule from publication PMC9124866, “Structure-Activity Relationships of Dopamine Transporter Pharmacological Chaperones” (Frontiers in Cellular Neuroscience, 2022).

The target in one experiment is YFP-HA-βlac-DAT (Homo sapiens, UniProt Q01959). The experiment in a line: β-lactamase (βlac) surface expression assay. The class given is cell-based. The following applies: HEK293, read-out: EMax (%), WT DAT surface expression, HEK cells expressing YFP-HA-βlac-DAT, overnight (16 h) incubation, up to 100 μM, normalized to vehicle; assumed effective EMax. Here is the method: The βlac surface expression assay was performed by following the method outlined in [Lam et al. (2013)] and [Beerepoot et al. (2015], [2016)]. The assay substrate nitrocefin (BD biosciences) was dissolved in dimethyl sulfoxide (DMSO) at a concentration of 10 mM and frozen at −80°C. Immediately before use, it was thawed and diluted to a final concentration of 100 μM in phosphate buffered saline (PBS). Cells (1 × 10^5/well) were seeded into a poly-D-lysine-coated 48-well plate and incubated for 24 h, prior to drug treatment. Drugs were added to individual wells at varying concentrations and incubated for 16 h. Subsequently, the media was aspirated, and the cells were washed twice with PBS. After removal of the final PBS wash, 200 μL of the nitrocefin solution was added to each well and the absorbance was immediately read. The EPOCH microplate spectrophotometer (BioTek) was used to measure absorbance (486 nm) for each well every minute for 30 min. The rate of reaction (slope of the curve) was used as the readout for the assay ([Beerepoot et al., 2015]). To determine suitable concentration ranges for each drug, they were dissolved in PBS or DMSO at the highest concentration possible. From here, the solutions were serial diluted 1/10 to yield 8 different concentrations. βLAC cells were then treated with the varying drug concentrations and cell viability was recorded using light microscopy. For additional measure, nitrocefin was added and the absorbance was read. For certain cases, Trypan Blue was used to quantitatively differentiate increased cell death from reduced cell division. […] Five or six doses were generally used in subsequent dosing experiments, starting at the highest non-toxic concentration.
Data analysis was performed using GraphPad Prism (GraphPad Software, La Jolla, CA). Linear regression analysis was performed on βLAC time points to determine the slope, thus the rate of reaction, for comparison. Furthermore, the slope was also used to determine the degree of dopamine uptake in the dopamine uptake assays. Non-linear regression, fitting to the log(agonist) vs. response and log(inhibitor) vs. response model curve, was used to determine dose-response relationships of surface expression and uptake assays, respectively. One-way ANOVA with Dunnett’s post hoc-test was used for the β-lactamase assay and one-way ANOVA with Bonferroni correction was used for western blot analysis.
Among these were RTI-1, RTI-2, RTI-5, RTI-6, RTI-11, RTI-20, and PAL-1007. […] The EMax values of all the analyzed drugs are included in Figure 1.
The pharmacological chaperone ability of the 15 ibogaine and tryptamine analogs, shown in Figure 3, were measured using the βlac surface expression assay. HEK cells expressing YFP-HA-βlac-DAT were incubated overnight with these compounds at concentrations varying by log and half-log dilutions, starting at 100 μM final concentration. […] Furthermore, it was important to determine whether the β-carboline analogs could also elicit a chaperone effect because they are not classified as DAT ligands ([Cao et al., 2007]). […] Removing the nitrogen from the ring reduced efficacy as observed with frovatriptan (103 ± 1.4%). […] Evodiamine (54 ± 1.7%) had no chaperone ability and caused a substantial reduction in the surface expression of DAT. Dose-response curves were generated to assess the pharmacological chaperone potencies of select compounds (Figure 4).

For another experiment, the target named is T1, K590A DAT (Homo sapiens, UniProt Q01959, K590A).
T1 construct: expressed in transfected cells; host or cells: HEK293
The experiment in a line: Western blot of mature K590A DAT protein levels. Conditions: overnight treatment. The class given is cell-based. Here is the method: Cells (1 × 10^6 cells/well) were seeded onto a 6-well plate and incubated for 24 h. Cells were then treated with drugs and incubated for 16 h. After the incubation period, cells were lysed in RIPA buffer supplemented with protease inhibitors (working concentrations: pepstatin A, 5 μg/mL; leupeptin, 10 μg/mL; aprotinin, 1.5 μg/mL; benzamidine, 0.1 μg/mL; PMSF, 0.1 mM) on ice. At 4°C, cell lysates were gently shaken for 15 min followed by centrifugation at 15,000 rpm for 15 min to pellet debris. The Pierce BCA protein assay kit (Thermo Fisher Scientific, Canada) was used to determine the protein concentration of the supernatant. To reach a concentration of 40 μg of protein per 20 μL, samples were diluted in fresh RIPA buffer with 12.5% Laemmli sample buffer and 2.5% β-Mercaptoethanol prior to being heated to 55°C. The protein was then loaded on a 7.5 or 10% SDS-PAGE gel and run at 100 V for approximately an hour or until the dye front reached the bottom of the gel. Next, protein was transferred to a PVDF membrane at 22 V for 16 h or 100 V for 1 h. Blots were blocked with LI-COR blocking buffer for 1 h and incubated for 1 h at room temperature with rabbit anti-GFP (1:1,000 dilution; Life Technologies, cat#A11122). After washing three times with TBST, blots were incubated with goat anti-rabbit IRDye-680RD secondary antibody (1:15,000; LI-COR, cat#926-68071). As a loading control, blots were incubated with mouse anti-GAPDH (1:5,000, Sigma-Aldrich, Canada, cat#G8795) prior to secondary antibody goat anti-mouse IRDye-800GR (1:5,000 dilution, Rockland, Limerick, PA, cat#610-132-007). All antibodies were diluted in LI-COR blocking buffer. Additionally, REVERT total protein staining (LI-COR, Lincoln, NE) was used as a loading control. […] Mature, fully glycosylated DAT (mDAT = 110 kDa) and immature, ER-resident DAT (iDAT = 75 kDa) were visualized using the Odyssey Imaging System (LI-COR, Lincoln, NE) and Image Studio Version 5.2 software (Supplementary Figure 1).
We next assessed whether drugs that increase DAT surface expression also increase total protein levels of DAT. Cells expressing YFP-HA-DAT were incubated with select test compounds and DAT protein levels were examined by western blot. The effects of the compounds were assessed on WT DAT and K590A DAT. The K590A mutant is a well-characterized ER-retained, trafficking-deficient DAT mutant ([Miranda et al., 2004]) that can be rescued by pharmacological chaperones ([Beerepoot et al., 2016]).
FIGURE 5 Effect of noribogaine, tetrahydroharmine, PAL-594, bicifadine, and RTI-20 on WT and K590A DAT expression. […] (B) Quantification of WT mDAT protein levels. […] (D) Quantification of K590A mDAT protein levels. […]
In general terms: A western blot detects proteins with antibodies after separation by electrophoresis.

YFP-HA-βlac-DAT, sequence (Q01959 1-171 limits assumed): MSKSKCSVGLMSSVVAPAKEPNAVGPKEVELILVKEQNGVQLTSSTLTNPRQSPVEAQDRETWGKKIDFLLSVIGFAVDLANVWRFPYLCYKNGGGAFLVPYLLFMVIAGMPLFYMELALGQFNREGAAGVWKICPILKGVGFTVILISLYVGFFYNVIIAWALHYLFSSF
YFP-HA-βlac-DAT, sequence (Q01959 237-620 limits assumed): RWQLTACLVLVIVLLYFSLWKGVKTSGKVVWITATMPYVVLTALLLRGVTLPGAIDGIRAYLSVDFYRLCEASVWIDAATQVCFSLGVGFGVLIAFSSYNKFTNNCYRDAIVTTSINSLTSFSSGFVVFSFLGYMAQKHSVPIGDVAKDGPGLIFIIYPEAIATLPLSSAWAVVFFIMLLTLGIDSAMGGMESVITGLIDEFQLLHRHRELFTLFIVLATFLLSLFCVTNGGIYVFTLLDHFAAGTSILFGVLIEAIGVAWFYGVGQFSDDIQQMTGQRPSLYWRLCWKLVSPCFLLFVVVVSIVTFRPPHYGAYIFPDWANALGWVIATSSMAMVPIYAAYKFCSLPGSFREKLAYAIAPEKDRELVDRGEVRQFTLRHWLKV
T1 sequence (Q01959 whole entry K590A): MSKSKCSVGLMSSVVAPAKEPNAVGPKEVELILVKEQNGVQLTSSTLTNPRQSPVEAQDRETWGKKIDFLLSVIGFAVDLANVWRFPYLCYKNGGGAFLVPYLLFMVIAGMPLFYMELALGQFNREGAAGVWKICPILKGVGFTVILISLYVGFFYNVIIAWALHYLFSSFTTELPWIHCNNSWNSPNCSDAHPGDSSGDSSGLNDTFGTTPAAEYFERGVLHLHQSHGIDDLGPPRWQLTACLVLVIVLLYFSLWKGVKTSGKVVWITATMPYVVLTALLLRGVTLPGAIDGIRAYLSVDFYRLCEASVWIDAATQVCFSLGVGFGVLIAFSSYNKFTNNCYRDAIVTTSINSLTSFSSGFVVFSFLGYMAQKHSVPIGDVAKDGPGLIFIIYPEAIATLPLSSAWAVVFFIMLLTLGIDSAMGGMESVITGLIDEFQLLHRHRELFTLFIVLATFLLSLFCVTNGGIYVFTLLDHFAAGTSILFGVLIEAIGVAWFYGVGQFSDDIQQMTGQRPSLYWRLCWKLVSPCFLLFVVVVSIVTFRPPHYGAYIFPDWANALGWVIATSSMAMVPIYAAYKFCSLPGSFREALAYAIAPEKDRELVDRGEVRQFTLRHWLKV

As a reminder, the Emax is the maximal effect, on the per cent scale that the assay sets. For `CCC1CC2CC3c4[nH]c5ccc(O)cc5c4CCN(C2)C13` (centres unmarked) [Noribogaine, reference compound], on YFP-HA-βlac-DAT, the Emax was 251 ± 17.8%. The “K590A DAT (mDAT) protein levels” value on K590A DAT is “statistically significant effect”.
